#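 All cell lines were grown in 96-well plates and treated with compound for 48 hours. GI50: concentration for 50% inhibition of growth. The concentration for full growth arrest is given as TGI.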
# How the values were obtained:
# Assay in all cases: DTP human tumour cell line panel, 48 h
# OVCAR-5 ovarian = system: OVCAR-5 ovarian
# SW-620 colon = system: SW-620 colon
# CAKI-1 renal = system: CAKI-1 renal
# MALME-3M melanoma = system: MALME-3M melanoma
# SNB-75 CNS = system: SNB-75 CNS
# PC-3 prostate = system: PC-3 prostate
# COLO 205 colon = system: COLO 205 colon
# SK-MEL-2 melanoma = system: SK-MEL-2 melanoma
# HCT-15 colon = system: HCT-15 colon
# HOP-62 NSCLC = system: HOP-62 NSCLC
# HOP-92 NSCLC = system: HOP-92 NSCLC
# MDA-MB-435 = system: MDA-MB-435
# EKVX NSCLC = system: EKVX NSCLC
# OVCAR-3 ovarian = system: OVCAR-3 ovarian
# LOX IMVI melanoma = system: LOX IMVI melanoma
# RXF 393 renal = system: RXF 393 renal
# NCI-H460 lung = system: NCI-H460 lung
# HCC-2998 colon = system: HCC-2998 colon
# SK-MEL-28 melanoma = system: SK-MEL-28 melanoma
# HL-60(TB) leukemia = system: HL-60(TB) leukemia
# HCT-116 colon = system: HCT-116 colon
# UACC-62 melanoma = system: UACC-62 melanoma
# SF-295 CNS = system: SF-295 CNS
# OVCAR-8 ovarian = system: OVCAR-8 ovarian
# SF-539 CNS = system: SF-539 CNS
# UACC-257 melanoma = system: UACC-257 melanoma
# MOLT-4 leukemia = system: MOLT-4 leukemia
# ACHN renal = system: ACHN renal
# NCI-H23 lung = system: NCI-H23 lung
# MDA-MB-231 breast = system: MDA-MB-231 breast
# NCI-H226 lung = system: NCI-H226 lung
# SN12C renal = system: SN12C renal
# BT-549 breast = system: BT-549 breast
# SK-OV-3 ovarian = system: SK-OV-3 ovarian
# NCI-H522 lung = system: NCI-H522 lung
# SF-268 CNS = system: SF-268 CNS
# NCI/ADR-RES ovarian = system: NCI/ADR-RES ovarian
# CCRF-CEM leukemia = system: CCRF-CEM leukemia
# RPMI-8226 leukemia = system: RPMI-8226 leukemia
# M14 melanoma = system: M14 melanoma
# HT29 colon = system: HT29 colon
# T-47D breast = system: T-47D breast
# U251 CNS = system: U251 CNS
# MCF7 breast = system: MCF7 breast
# UO-31 renal = system: UO-31 renal
# TK-10 renal = system: TK-10 renal
# SR leukemia = system: SR leukemia
# SNB-19 CNS = system: SNB-19 CNS
# HS 578T breast = system: HS 578T breast
# KM12 colon = system: KM12 colon
# OVCAR-4 ovarian = system: OVCAR-4 ovarian
# IGROV1 ovarian = system: IGROV1 ovarian
# DU-145 prostate = system: DU-145 prostate
# K-562 leukemia = system: K-562 leukemia
# 786-0 renal = system: 786-0 renal
# SK-MEL-5 melanoma = system: SK-MEL-5 melanoma
# A549 NSCLC = system: A549 NSCLC
compound,measurement,setting,value
CC(C)=CCc1c(O)c(CC=C(C)C)c2c(c1O)C(=O)C1=C[C@@H]3C[C@H]4C(C)(C)O[C@@](C/C=C(\C)C(=O)O)(C3=O)[C@@]14O2,GI50,OVCAR-5 ovarian,32.9 µM
same,TGI,OVCAR-5 ovarian,98.1 µM
same,GI50,SW-620 colon,19.9 µM
same,TGI,SW-620 colon,50.4 µM
same,GI50,CAKI-1 renal,29.4 µM
same,TGI,CAKI-1 renal,> 100 µM
same,GI50,MALME-3M melanoma,18 µM
same,TGI,MALME-3M melanoma,50.9 µM
same,GI50,SNB-75 CNS,31.9 µM
same,TGI,SNB-75 CNS,> 100 µM
same,GI50,PC-3 prostate,25 µM
same,TGI,PC-3 prostate,64.8 µM
same,GI50,COLO 205 colon,19.3 µM
same,TGI,COLO 205 colon,45.5 µM
same,GI50,SK-MEL-2 melanoma,19.8 µM
same,TGI,SK-MEL-2 melanoma,43 µM
same,GI50,HCT-15 colon,23.9 µM
same,TGI,HCT-15 colon,> 100 µM
same,GI50,HOP-62 NSCLC,23.8 µM
same,TGI,HOP-62 NSCLC,58.7 µM
same,GI50,HOP-92 NSCLC,19 µM
same,TGI,HOP-92 NSCLC,45 µM
same,GI50,MDA-MB-435,23.9 µM
same,TGI,MDA-MB-435,62.9 µM
same,GI50,EKVX NSCLC,27.5 µM
same,TGI,EKVX NSCLC,> 100 µM
same,GI50,OVCAR-3 ovarian,18.1 µM
same,TGI,OVCAR-3 ovarian,34.2 µM
same,GI50,LOX IMVI melanoma,14.4 µM
same,TGI,LOX IMVI melanoma,28.6 µM
same,GI50,RXF 393 renal,21.6 µM
same,TGI,RXF 393 renal,42.2 µM
same,GI50,NCI-H460 lung,19.8 µM
same,TGI,NCI-H460 lung,44 µM
same,GI50,HCC-2998 colon,19.6 µM
same,TGI,HCC-2998 colon,40.1 µM
same,GI50,SK-MEL-28 melanoma,24.8 µM
same,TGI,SK-MEL-28 melanoma,69.1 µM
same,GI50,HL-60(TB) leukemia,21.1 µM
same,TGI,HL-60(TB) leukemia,70.3 µM
same,GI50,HCT-116 colon,18 µM
same,TGI,HCT-116 colon,34.2 µM
same,GI50,UACC-62 melanoma,19.9 µM
same,TGI,UACC-62 melanoma,50.8 µM
same,GI50,SF-295 CNS,33.9 µM
same,TGI,SF-295 CNS,> 100 µM
same,GI50,OVCAR-8 ovarian,28.4 µM
same,TGI,OVCAR-8 ovarian,> 100 µM
same,GI50,SF-539 CNS,17.3 µM
same,TGI,SF-539 CNS,41.2 µM
same,GI50,UACC-257 melanoma,21.6 µM
same,TGI,UACC-257 melanoma,55 µM
same,GI50,MOLT-4 leukemia,25.1 µM
same,TGI,MOLT-4 leukemia,93.4 µM
same,GI50,ACHN renal,29.7 µM
same,TGI,ACHN renal,> 100 µM
same,GI50,NCI-H23 lung,22.5 µM
same,TGI,NCI-H23 lung,69.2 µM
same,GI50,MDA-MB-231 breast,42.1 µM
same,TGI,MDA-MB-231 breast,> 100 µM
same,GI50,NCI-H226 lung,25.4 µM
same,TGI,NCI-H226 lung,58.9 µM
same,GI50,SN12C renal,29.4 µM
same,TGI,SN12C renal,> 100 µM
same,GI50,BT-549 breast,16.8 µM
same,TGI,BT-549 breast,33.8 µM
same,GI50,SK-OV-3 ovarian,59.6 µM
same,TGI,SK-OV-3 ovarian,> 100 µM
same,GI50,NCI-H522 lung,15.9 µM
same,TGI,NCI-H522 lung,36 µM
same,GI50,SF-268 CNS,26.6 µM
same,TGI,SF-268 CNS,> 100 µM
same,GI50,NCI/ADR-RES ovarian,33.3 µM
same,TGI,NCI/ADR-RES ovarian,> 100 µM
same,GI50,CCRF-CEM leukemia,18.5 µM
same,TGI,CCRF-CEM leukemia,76.5 µM
same,GI50,RPMI-8226 leukemia,12.8 µM
same,TGI,RPMI-8226 leukemia,50.8 µM
same,GI50,M14 melanoma,19.9 µM
same,TGI,M14 melanoma,52.3 µM
same,GI50,HT29 colon,23.7 µM
same,TGI,HT29 colon,64.3 µM
same,GI50,T-47D breast,23.6 µM
same,TGI,T-47D breast,79.3 µM
same,GI50,U251 CNS,17.4 µM
same,TGI,U251 CNS,38.5 µM
same,GI50,MCF7 breast,19 µM
same,TGI,MCF7 breast,> 100 µM
same,GI50,UO-31 renal,14.3 µM
same,TGI,UO-31 renal,31.8 µM
same,GI50,TK-10 renal,25.6 µM
same,TGI,TK-10 renal,50.9 µM
same,GI50,SR leukemia,16.1 µM
same,TGI,SR leukemia,> 100 µM
same,GI50,SNB-19 CNS,30.2 µM
same,TGI,SNB-19 CNS,94.4 µM
same,GI50,HS 578T breast,42.6 µM
same,TGI,HS 578T breast,> 100 µM
same,GI50,KM12 colon,21.2 µM
same,TGI,KM12 colon,47.1 µM
same,GI50,OVCAR-4 ovarian,41.7 µM
same,TGI,OVCAR-4 ovarian,> 100 µM
same,GI50,IGROV1 ovarian,26.7 µM
same,TGI,IGROV1 ovarian,83.2 µM
same,GI50,DU-145 prostate,25.9 µM
same,TGI,DU-145 prostate,68 µM
same,GI50,K-562 leukemia,24 µM
same,TGI,K-562 leukemia,> 100 µM
same,GI50,786-0 renal,18.8 µM
same,TGI,786-0 renal,37.3 µM
same,GI50,SK-MEL-5 melanoma,18.8 µM
same,TGI,SK-MEL-5 melanoma,36.1 µM
same,GI50,A549 NSCLC,38.4 µM
same,TGI,A549 NSCLC,> 100 µM
